Data from paper PMC12534982 (Journal of Experimental & Clinical Cancer Research : CR, 2025).

How the values were obtained:
Type in all cases: cell-based, human
colorectal cancer cells [1] = experiment: Cell proliferation assay (Trypan Blue exclusion)
Protocol: Cancer cells (7.5 × 10^3) were cultured in 60-mm Petri dishes and treated with DMSO or NK-A 17E-233I (25 µM) to evaluate their proliferation at various time intervals (24 h, 48 h, 96 h, 120 h) using the Trypan Blue exclusion assay.

SW620 cells [2] = experiment: DHODH-dependent respiration (permeabilized cells); conditions: 24 h; NK-A 17E-233I 25 µM, Brequinar 100 µM; excess exogenous DHO
Protocol: Cells were resuspended in MiR05 medium and transferred into the chambers of the Oxygraph-2k instruments. The OCR in digitonin-permeabilized cells was monitored in the presence of the complex I inhibitor (0.5 μM rotenone), 1 mM DHO, 3 mM ADP, 10 μM cytochrome c, and 30 μM Leflunomide. DHODH-mediated respiration was calculated by subtracting the residual respiration rate after the addition of 30 μM Leflunomide from the respiration rate measured in the presence of 0.5 μM rotenone, 1 mM DHO, 3 mM ADP, and 10 μM cytochrome c.

SW620 cells [3] = experiment: Glutathione assay (GSH/GSSG); conditions: 25 µM, 24 h
Protocol: Optical density measurements were recorded at 450 nm using a Victor Multilabel Plate Reader.

colorectal cancer cells [4] = experiment: Clonogenic assay
Protocol: Cancer cells (4 × 10^3) were cultured in 6-well plates in triplicate and treated with DMSO or NK-A 17E-233I (25 µM) for two weeks. Colonies were subsequently stained with a solution containing 0.5% crystal violet (#B21932.14; ThermoScientific) and 20% ethanol, followed by multiple washes with water. Plates were allowed to air dry overnight and were subsequently scanned using an Epson Perfection V850 Pro scanner (Kamera Express, Spain). The area of the wells occupied by cells was quantified utilizing the ImageJ plugin ColonyArea.

colorectal cancer cells [5] = experiment: Neutral comet assay; conditions: 25 µM
Protocol: The assay was conducted as described in [20]. Cancer cells (2–3 × 10^5) were cultured in 6-well plates and treated with DMSO or NK-A 17E-233I (25 µM) for 1 or 24 h. After treatment, the cells were harvested and suspended in Comet Low Melting Agarose (LMA; Trevigen). Once the LMA solidified, the glass slides (CometSlide) were placed in a cell lysis buffer at 4 °C overnight. Electrophoresis was performed using a comet assay electrophoresis system (21 V for 40 min). The slides were subsequently washed and stained with SYBR® Gold dye (Invitrogen) in the dark for 30 min. DNA migration was observed using a fluorescence microscope (AF6000, Leica) equipped with a HCX PL APO 63x (NA = 1.4) oil objective. Comet tail lengths were measured with ImageJ/FIJI, analyzing over 100 cells per each condition.

[6] = test system: tumor-derived intestinal organoids; experiment: Organoid viability (CellTiter-Glo 3D); conditions: 96 h
colorectal cancer cells [7] = experiment: Western blot
Protocol: Cancer cells (2.2 × 10^6) were cultured in 100-mm Petri dishes and treated with DMSO or NK-A 17E-233I (25 µM) for 48 h. Cells were harvested by scrapping into 2 × Laemmli buffer (4% SDS, 20% glycerol, 125 mM Tris–HCl, pH 6.8) and heated at 100 °C for 5 min. A 4 × Laemmli sample buffer containing β-mercaptoethanol was added to the cell lysates. The proteins were separated using sodium dodecyl sulfate polyacrylamide gel electrophoresis (SDS-PAGE) and subsequently transferred to polyvinylidene fluoride (PVDF) membranes (#88518; Thermo Fisher Scientific) following the manufacturer’s protocols. The membranes were blocked at room temperature for 1 h with 5% dried skimmed milk in Tris-buffered saline with Tween-20 (TBS-T) (20 mM Tris–HCl, pH 7.5, 150 mM NaCl, 0.1% Tween-20), and the blots were incubated with the corresponding antibodies at a dilution of 1:1000–1:3000 in a blocking buffer at 4 °C overnight.
Primary antibodies utilized in this study included: anti-human DHODH (#SC-166348; Santa Cruz), anti–CHK1-pS345 (#2348; Cell Signaling), anti-POLD2 (#29765–1-AP; Proteintech), anti-POLD1 (#15646–1-AP; Proteintech), anti-p53 (#SC-126; Santa Cruz), anti-KRAS, clone 4F3 (#SAB1404011; Sigma-Aldrich), anti-GAPDH (#ab9489; Abcam), anti–α-tubulin (#T9026; Sigma-Aldrich), anti-BAX (#SC-23959; Santa Cruz), anti-cytochrome c (#66264–1-IG; Proteintech), anti-DR5 (#3696; Cell Signaling, dilution 1:500), anti–caspase-8 (#SC-56070; Santa Cruz), and anti–caspase-3 (#9662; Cell Signaling, dilution 1:500). The membranes were incubated at room temperature for 1 h with secondary antibodies (diluted 1:3000–5000), either anti-rabbit (#A0545; Sigma-Aldrich) or anti-mouse IgG-horseradish peroxidase-conjugated (#A9044; Sigma-Aldrich), in TBS-T. The images were analyzed and quantified using ImageStudio software (LI-COR) or ImageQuant 10.2 TL analysis software (Cytiva Life Sciences).

Compound: COc1cc(C)c(Oc2cc(C)cc(O)c2O)c(O)c1 [NK-A 17E-233I]
- cell proliferation (colorectal cancer cells [1]; 25 µM, over time): reduced
- growth inhibition in the presence of physiological uridine (colorectal cancer cells [1]; SW620, 25 µM, 24 h, 5 µM and 20 µM uridine): did not mitigate the growth inhibitory effects
- DHODH-mediated oxygen consumption rate (SW620 cells [2]): reduced
- GSH/GSSG ratio (SW620 cells [3]): significantly decreased
- oxidized glutathione (GSSG) levels (SW620 cells [3]): increasing
- reduced glutathione (GSH) levels (SW620 cells [3]): significantly decreased
- ability to form colonies (colorectal cancer cells [4]; 25 µM, two weeks): significantly diminished
- combination with the ATR inhibitor VE-821 (colorectal cancer cells [4]; LS174T: Tx 4 µM, VE-821 0.5 µM, 14 days, HCT116): synergistic activity
- comet tails (DNA double-strand breaks) (colorectal cancer cells [5]): longer comet tails
- sensitivity of tumor-derived organoids [6]: demonstrated sensitivity to NK-A 17E-233I in a dose-dependent manner
- expression of wild-type p53 protein (colorectal cancer cells [7]; 25 µM): without influencing the expression
- phosphorylation of CHK1 (pS345) (colorectal cancer cells [7]; 25 µM): confirmed the phosphorylation of CHK1
- expression levels of DHODH (colorectal cancer cells [7]; 25 µM, 48 h): did not observe a change
- levels of apoptotic markers (DR5, caspase-8, Bax, cytochrome c, caspase-3) (colorectal cancer cells [7]; 25 µM, 48 h): increased levels
- protein expression levels of POLD1 and POLD2 (colorectal cancer cells [7]; 25 µM, 48 h): reductions
- expression of KRAS G13D mutant protein (colorectal cancer cells [7]; HCT116 cells): reduced
- levels of p53-mutant protein (colorectal cancer cells [7]; NK-A 17E-233I 25 µM, Brequinar): reduced
- expression of KRAS G12V mutant protein (colorectal cancer cells [7]; SW620 cells): reduced
